Test results published in ChEMBL document CHEMBL4261605, “Discovery of a novel series of pyridine and pyrimidine carboxamides as potent and selective covalent inhibitors of Btk” (Bioorg Med Chem Lett, 2018).

Assays:
[1] = molecular target: T1, Tyrosine-protein kinase BTK (Homo sapiens, UniProt Q06187); assay: Inhibition of recombinant human full length N-terminal GST-tagged BTK (2 to 659 residues) expressed in baculovirus expression system using FITC-AHA-EEPLYWSFPAKKK-NH2 substrate measured after 90 mins by off-chip mobility shift assay
T1 sequence (Q06187 whole entry, the tested form may be a part): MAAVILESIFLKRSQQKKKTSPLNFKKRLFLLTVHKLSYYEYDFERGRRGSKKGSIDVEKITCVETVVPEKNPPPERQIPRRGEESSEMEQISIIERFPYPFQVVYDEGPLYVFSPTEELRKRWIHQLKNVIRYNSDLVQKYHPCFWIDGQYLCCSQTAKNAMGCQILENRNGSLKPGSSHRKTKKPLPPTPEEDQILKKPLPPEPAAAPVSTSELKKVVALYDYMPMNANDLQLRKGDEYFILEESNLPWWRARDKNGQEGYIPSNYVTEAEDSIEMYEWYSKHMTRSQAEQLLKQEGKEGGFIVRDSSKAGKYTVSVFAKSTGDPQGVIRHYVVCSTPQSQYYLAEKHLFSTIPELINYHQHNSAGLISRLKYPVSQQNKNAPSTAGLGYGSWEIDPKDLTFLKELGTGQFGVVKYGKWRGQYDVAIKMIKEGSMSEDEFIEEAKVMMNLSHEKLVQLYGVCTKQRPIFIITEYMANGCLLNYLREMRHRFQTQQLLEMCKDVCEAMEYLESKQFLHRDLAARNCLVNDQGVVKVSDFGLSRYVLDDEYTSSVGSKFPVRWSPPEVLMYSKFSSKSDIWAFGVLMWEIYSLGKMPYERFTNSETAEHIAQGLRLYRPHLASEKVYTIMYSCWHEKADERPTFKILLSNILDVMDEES

[2] = Half life in mouse at 0.5 mg/kg, po; format: ADME, organism-based; details: in vivo
Cytochrome P450 2C19 = Cytochrome P450 2C19 (Homo sapiens, UniProt P33261); assay: Inhibition of CYP2C19 (unknown origin); format: ADME
Sequence of Cytochrome P450 2C19 (P33261 whole entry): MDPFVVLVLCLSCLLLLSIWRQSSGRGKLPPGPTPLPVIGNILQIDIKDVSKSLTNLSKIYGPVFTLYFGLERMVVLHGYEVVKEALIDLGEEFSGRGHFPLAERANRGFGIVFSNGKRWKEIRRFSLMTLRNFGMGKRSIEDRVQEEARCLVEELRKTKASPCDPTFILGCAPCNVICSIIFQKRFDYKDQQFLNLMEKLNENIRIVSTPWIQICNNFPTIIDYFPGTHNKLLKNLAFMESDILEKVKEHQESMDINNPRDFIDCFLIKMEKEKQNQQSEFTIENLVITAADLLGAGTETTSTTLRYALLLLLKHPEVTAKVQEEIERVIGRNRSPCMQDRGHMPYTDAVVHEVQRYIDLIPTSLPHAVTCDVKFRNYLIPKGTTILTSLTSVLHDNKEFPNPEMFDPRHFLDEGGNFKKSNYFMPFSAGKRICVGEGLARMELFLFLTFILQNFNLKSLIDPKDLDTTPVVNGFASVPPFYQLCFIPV

[3] = AUC in mouse at 0.5 mg/kg, po; format: ADME, organism-based; details: in vivo
Cytochrome P450 2C9 = Cytochrome P450 2C9 (Homo sapiens, UniProt P11712); assay: Inhibition of CYP2C9 (unknown origin); format: ADME
Sequence of Cytochrome P450 2C9 (P11712 whole entry): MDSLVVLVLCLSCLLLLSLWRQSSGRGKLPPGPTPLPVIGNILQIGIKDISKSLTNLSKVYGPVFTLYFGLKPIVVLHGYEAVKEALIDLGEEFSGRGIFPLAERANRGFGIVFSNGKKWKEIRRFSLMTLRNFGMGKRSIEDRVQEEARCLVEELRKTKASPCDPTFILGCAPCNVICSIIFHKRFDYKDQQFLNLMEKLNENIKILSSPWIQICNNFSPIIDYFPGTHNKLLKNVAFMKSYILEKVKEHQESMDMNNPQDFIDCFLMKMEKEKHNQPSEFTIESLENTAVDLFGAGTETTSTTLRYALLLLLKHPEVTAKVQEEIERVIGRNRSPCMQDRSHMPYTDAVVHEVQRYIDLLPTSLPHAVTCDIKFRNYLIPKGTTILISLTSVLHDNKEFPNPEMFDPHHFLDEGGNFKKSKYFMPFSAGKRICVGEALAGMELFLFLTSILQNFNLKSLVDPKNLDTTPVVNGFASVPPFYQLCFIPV

Cytochrome P450 3A4 = Cytochrome P450 3A4 (Homo sapiens, UniProt P08684); assay: Inhibition of CYP3A4 (unknown origin); format: ADME
Sequence of Cytochrome P450 3A4 (P08684 whole entry): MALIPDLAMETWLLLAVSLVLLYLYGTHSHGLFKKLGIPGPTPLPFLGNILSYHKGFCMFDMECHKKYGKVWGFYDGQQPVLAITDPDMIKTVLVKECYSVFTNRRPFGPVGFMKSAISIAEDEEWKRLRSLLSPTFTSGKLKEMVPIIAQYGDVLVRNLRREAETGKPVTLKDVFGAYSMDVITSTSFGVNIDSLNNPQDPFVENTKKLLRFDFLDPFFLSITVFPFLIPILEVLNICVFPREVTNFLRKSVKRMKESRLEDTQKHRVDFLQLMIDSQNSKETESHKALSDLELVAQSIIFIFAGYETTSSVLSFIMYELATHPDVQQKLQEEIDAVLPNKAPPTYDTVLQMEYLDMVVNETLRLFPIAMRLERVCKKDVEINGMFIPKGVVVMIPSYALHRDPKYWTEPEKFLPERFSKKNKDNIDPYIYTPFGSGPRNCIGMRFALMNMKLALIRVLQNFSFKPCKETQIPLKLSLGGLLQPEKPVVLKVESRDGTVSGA

Cytochrome P450 2C8 = molecular target: T2, Cytochrome P450 2C8 (Homo sapiens, UniProt P10632); assay: Inhibition of CYP2C8 (unknown origin); format: ADME
T2 sequence (P10632 whole entry): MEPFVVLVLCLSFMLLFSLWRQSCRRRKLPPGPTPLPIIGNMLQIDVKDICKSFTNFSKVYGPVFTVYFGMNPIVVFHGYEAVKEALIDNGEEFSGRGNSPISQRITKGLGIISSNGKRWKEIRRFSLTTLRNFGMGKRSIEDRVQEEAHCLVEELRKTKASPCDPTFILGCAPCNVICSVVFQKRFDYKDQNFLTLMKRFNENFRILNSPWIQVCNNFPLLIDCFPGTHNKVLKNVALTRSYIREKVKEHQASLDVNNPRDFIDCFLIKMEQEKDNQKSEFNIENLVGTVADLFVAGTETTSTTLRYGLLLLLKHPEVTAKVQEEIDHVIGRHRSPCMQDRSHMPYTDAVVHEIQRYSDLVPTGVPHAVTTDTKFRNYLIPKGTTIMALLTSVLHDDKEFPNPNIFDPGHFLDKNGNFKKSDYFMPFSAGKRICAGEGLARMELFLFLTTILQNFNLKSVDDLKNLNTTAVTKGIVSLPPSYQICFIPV

Cytochrome P450 2B6 = molecular target: T3, Cytochrome P450 2B6 (Homo sapiens, UniProt P20813); assay: Inhibition of CYP2B6 (unknown origin); format: ADME
T3 sequence (P20813 whole entry): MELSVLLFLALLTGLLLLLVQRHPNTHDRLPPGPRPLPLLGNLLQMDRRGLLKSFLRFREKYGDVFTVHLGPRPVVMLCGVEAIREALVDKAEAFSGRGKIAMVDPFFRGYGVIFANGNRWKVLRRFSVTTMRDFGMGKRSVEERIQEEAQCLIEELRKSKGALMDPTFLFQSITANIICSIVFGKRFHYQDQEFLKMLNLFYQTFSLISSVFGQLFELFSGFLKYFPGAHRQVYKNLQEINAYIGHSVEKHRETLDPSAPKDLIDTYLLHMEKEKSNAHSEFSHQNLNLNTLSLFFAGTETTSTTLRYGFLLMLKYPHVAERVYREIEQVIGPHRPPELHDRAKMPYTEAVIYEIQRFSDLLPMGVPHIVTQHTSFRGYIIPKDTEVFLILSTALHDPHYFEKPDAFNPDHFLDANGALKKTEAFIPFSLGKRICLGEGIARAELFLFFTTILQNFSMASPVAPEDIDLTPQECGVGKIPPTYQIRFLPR

[4] = Efflux ratio of permeability in human Caco2 cells; details: Caco-2
[5] = molecular target: T1, Tyrosine-protein kinase BTK; assay: Inhibition of BTK in goat anti-human IgM F(ab')2-stimulated human PBMC assessed as suppression of BCR-induced CD69 expression on B cells pretreated for 1 hr followed by blood stimulation measured after overnight incubation by flow cytometry; format: cell-based
[6] = Permeability across apical to basolateral side in human Caco2 cells; details: Caco-2
[7] = molecular target: T1, Tyrosine-protein kinase BTK; assay: Inhibition of recombinant human full length N-terminal GST-tagged BTK (2 to 659 residues) expressed in baculovirus expression system at 100 uM using FITC-AHA-EEPLYWSFPAKKK-NH2 substrate measured after 90 mins by off-chip mobility shift assay relative to control

IC50 [1] | IC50 [5] | SMILES | other results
1600 nM |  | NC(=O)c1ccc(N2CC[C@H](N)C2)nc1Nc1ccc(C(=O)N2CCOCC2)cc1 | 
0.5 nM |  | C=CC(=O)N[C@H]1CCN(c2ncc(C(N)=O)c(Nc3ccc(C(=O)N4CCOCC4)cc3)n2)C1 | 
1.9 nM | 7 nM | C=CC(=O)N[C@H]1CCN(c2ccc(C(N)=O)c(Nc3ccc(CCN4CCCC4)cc3)n2)C1 | 
1.5 nM |  | C=CC(=O)N[C@H]1CCN(c2ccc(C(N)=O)c(Nc3ccc(C(=O)N4CCOCC4)cc3)n2)C1 | 
8 nM |  | C=CC(=O)N[C@H]1CCN(c2ncc(C(N)=O)c(Nc3ccc(F)cc3)n2)C1 | 
16 nM |  | C=CC(=O)N[C@H]1CCCN(c2ccc(C(N)=O)c(Nc3ccc(C(=O)N4CCOCC4)cc3)n2)C1 | 
1.6 nM | 14 nM | C=CC(=O)N[C@H]1CCN(c2nc(Nc3ccc(N4C[C@@H](C)O[C@@H](C)C4)cc3)c(C(N)=O)cc2F)C1 | 
16.2 nM |  | C=CC(=O)N[C@@H]1CCN(c2ccc(C(N)=O)c(Nc3ccc(C(=O)N4CCOCC4)cc3)n2)C1 | 
1.1 nM | 44 nM | C=CC(=O)N[C@H]1CCN(c2ncc(C(N)=O)c(Nc3ccc(C(=O)N4CC(C)OC(C)C4)cc3)n2)C1 (some centres undefined) | 

Second part, the compound before the results:

SMILES | IC50 [1] | IC50 [5] | other results
C=CC(=O)N[C@H]1CCN(c2ccc(C(N)=O)c(NC3CCCCC3)n2)C1 | > 6000 nM |  | 
C=CC(=O)N1CCC[C@@H](n2nc(-c3ccc(Oc4ccccc4)cc3)c3c(N)ncnc32)C1 [IBRUTINIB] |  |  | half-life [2]: 30 min; INH (Cytochrome P450 2C19): 19 µM; AUC [3]: 26 ng·h/mL; INH (Cytochrome P450 2C9): 8.5 µM; INH (Cytochrome P450 3A4): 11 µM; INH (Cytochrome P450 2C8): 7.9 µM; INH (Cytochrome P450 2B6): 11.1 µM
C=CC(=O)N(C)[C@H]1CCN(c2ccc(C(N)=O)c(Nc3ccc(CCN4CCCC4)cc3)n2)C1 | 1.3 nM | 41 nM | efflux ratio [4]: 266; Papp A→B [6]: 0.07 ×10⁻⁶ cm/s
C=CC(=O)N[C@H]1CCN(c2ccc(C(N)=O)c(Nc3ccc(Oc4ccccc4)cc3)n2)C1 | 11 nM |  | 
NC(=O)c1ccc(NC2CCCCC2)nc1 | > 6000 nM |  | inhibition [7]: 71%
C=CC(=O)N[C@@H]1CN(c2ccc(C(N)=O)c(Nc3ccc(CCN4CCCC4)cc3)n2)CC12CC2 | 0.09 nM | 4.9 nM | efflux ratio [4]: 822; Papp A→B [6]: 0.02 ×10⁻⁶ cm/s
C=CC(=O)N[C@@H]1CCN(c2ncc(C(N)=O)c(N)n2)C1 | 500 nM |  | 
C=CC(=O)N[C@H]1CCN(c2ncc(C(N)=O)c(N)n2)C1 | 180 nM |  | 
C=CC(=O)N1CCN(c2ccc(C(N)=O)c(Nc3ccc(CCN4CCCC4)cc3)n2)CC1 | 0.3 nM | 4.3 nM | 
C=CC(=O)N[C@H]1CCN(c2ccc(C(N)=O)c(Nc3ccc(N4C[C@@H](C)O[C@@H](C)C4)cc3)n2)C1 | 0.6 nM | 6.1 nM | 
C=CC(=O)N1C[C@H]2C[C@@H]1CN2c1ccc(C(N)=O)c(Nc2ccc(C)nc2)n1 | 0.1 nM | 1.4 nM | 
